Data as given in article PMC4259467, “Molecular Cloning, Characterization and Positively Selected Sites of the Glutathione S-Transferase Family from Locusta migratoria” (PLoS ONE, 2014).

Key:
LmGSTS10 = molecular target: T1, LmGSTS10 (Locusta migratoria, UniProt V9Q3X5); experiment: spectrophotometric GST assay, steady state; assay type: biochemical; conditions: co-substrate GSH; pH and temperature not given; read-out: K m ^CDNB
T1 construct: gene GSTs10; full-length ORF in pET28a, E. coli BL21(DE3), His-tag Ni-NTA purified
T1 sequence (V9Q3X5 1-204): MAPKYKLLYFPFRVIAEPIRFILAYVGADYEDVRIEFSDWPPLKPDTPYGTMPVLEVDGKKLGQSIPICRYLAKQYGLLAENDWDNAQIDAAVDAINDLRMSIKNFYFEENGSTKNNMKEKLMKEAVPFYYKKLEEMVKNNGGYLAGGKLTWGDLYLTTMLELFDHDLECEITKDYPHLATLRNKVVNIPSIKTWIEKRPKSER
Text: spectrophotometric GST assay, steady state on LmGSTS10

LmGSTD5 = molecular target: T2, LmGSTD5 (Locusta migratoria, UniProt V9Q4A2); experiment: spectrophotometric GST assay, steady state; assay type: biochemical; conditions: co-substrate GSH; pH and temperature not given; read-out: K m ^CDNB
T2 construct: gene GSTd5; full-length ORF in pET28a, E. coli BL21(DE3), His-tag Ni-NTA purified
T2 sequence (V9Q4A2 1-224): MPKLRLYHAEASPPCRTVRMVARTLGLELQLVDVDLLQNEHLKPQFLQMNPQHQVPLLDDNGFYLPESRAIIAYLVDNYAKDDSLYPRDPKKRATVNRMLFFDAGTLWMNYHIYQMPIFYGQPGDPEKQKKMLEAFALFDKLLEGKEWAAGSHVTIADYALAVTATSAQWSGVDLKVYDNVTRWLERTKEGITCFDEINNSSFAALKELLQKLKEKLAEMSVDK
Text: spectrophotometric GST assay, steady state on LmGSTD5

O=[N+]([O-])c1ccc(Cl)c([N+](=O)[O-])c1 [CDNB] was tested, and the Km (LmGSTS10) was 311 ± 18 µM and the Km (LmGSTD5) was 21 ± 1 µM.
